For this series the following is noted: amide bond; 22-membered ring; HATU/DIEA; NMP; 68.9 mM; 140.0 °C; 2 steps.

Our source for the ring closure, yield after HPLC values is patent US10189820.

“8-ethyl-10,18,30-trimethyl-7,20-dioxo-7,8,11,12,13,14,15,20,21,28,29,30,31,32-tetradecahydro-benzo[4,5]imidazo[2,1-b]benzo[4,5]imidazo[1,2-i]dipyrazolo[5,1-m:4′,3′-t][1,3,6,9,11,14]hexaazacyclodocosine-3,24-dicarboxamide” gave a ring closure, yield after HPLC of 4.56%.
